# US6555558B2, “Oral dosage self-emulsifying formulations of pyranone protease inhibitors” (priority 2000, dated 2003)
# Columns and labels:
# [1] = test system: clinical isolates with a wide range of resistance to currently available peptidomimetic protease inhibitors; details: 105 viruses with more than tenfold resistance to three or four proteinase inhibitors, average 6.1 protease mutations; cited from earlier work
# [2] = test system: HIV-1 variants resistant to the peptidomimetic protease inhibitors; details: cited from earlier work
# [3] = target: T1, HIV protease (Human immunodeficiency virus type 1 group M subtype B, UniProt P04585); details: in vitro enzymatic inhibition; cited from earlier work
# T1 construct: one of the smallest enzymes yet characterized (consisting of only 99 amino acids)
# [4] = test system: viral aspartate proteases of a variety of HIV type 1 laboratory strains and clinical isolates; details: including those resistant to zidovudine and delavirdine; cited from earlier work
# [5] = free acid form; pH of from about 6 to about 7; cited from earlier work
# [6] = solubility in polyethylene glycols; format: physicochemical; details: polyethylene glycols within a defined average molecular weight range
# Method: Microemulsion phase diagrams were constructed for systems containing various lipophilic phases, hydrophilic phases, and surfactants. After numerous studies it was determined that a number of pyranone protease inhibitors, including tipranavir, were soluble in polyethylene glycols within a defined average molecular weight range, and could be used to replace propylene glycol and ethanol found in conventional microemulsion formulations of such drugs.
# [7] = test system: isolates resistant to indinavir, ritonavir and nelfinavir; saquinavir resistance; details: cited from earlier work
# [8] = test system: HIV; details: antiviral cell culture; cited from earlier work
# [9] = cited from earlier work
smiles,measurement,setting,value
CCC[C@@]1(CCc2ccccc2)CC(O)=C([C@H](CC)c2cccc(NS(=O)(=O)c3ccc(C(F)(F)F)cn3)c2)C(=O)O1 [tipranavir],share of resistant viruses susceptible,[1],ninety
same,activity against HIV-1 variants resistant to peptidomimetic protease inhibitors,[2],highly active
same,Ki,[3],~0.008 nM
same,potency against viral aspartate proteases,[4],excellent potency
same,aqueous solubility,[5],about 10 μg/ml
same,solubility in polyethylene glycols,[6],soluble
same,"antiviral activity against isolates resistant to indinavir, ritonavir and nelfinavir",[7],retain sustained antiviral activity
same,IC90,[8],~100 nM
same,Log P,[9],about 6.1
